Patent US4659727A, “Ethene derivatives” (May & Baker Limited, priority 1984, dated 1987)

The compounds below were run on lipoxygenase (assay: inhibition of lipoxygenase in vitro). Settings: 0.0001M.
Format: biochemical
Text: For example, in tests in vitro at concentrations of 0.0001M, a compound of formula I inhibited lipoxygenase by the percentage shown in the following Table III.

Compound	% inhibition of lipoxygenase
CCOC(=O)C(=CNc1ncccc1C)C(=O)OCC [Compound AM, 1,1-bis(ethoxycarbonyl)-2-(3-methylpyrid-2-ylamino)ethene]	62%

The compounds below were run on delayed-type hypersensitivity (Type IV hypersensitivity reaction), foot pad swelling (assay: delayed-type hypersensitivity (DTH) test, foot pad swelling). Settings: mice, dose 10 mg/kg animal body weight.
Format: in vivo
Text: Compounds of formula I were also submitted to the delayed-type hypersensitivity (DTH) test, which is an in-vivo model of cellular immunity (Type IV hypersensitivity reaction) which is suppressed by antirheumatic drugs. Previously sensitised mice receive antigen challenge (using methylated bovine serum albumen) by foot pad injection and the resulting foot pad swelling is compared in control animals and animals treated with compounds of formula I.

Compound	% inhibition
O=S(=O)(C(=CNc1cnc2ccccc2c1)S(=O)(=O)c1ccccc1)c1ccccc1 [E, 1,1-bis(phenylsulphonyl)-2-(quinol-3-ylamino)ethene]	38%
O=S(=O)(C(=CNc1ccc2ccccc2n1)S(=O)(=O)c1ccccc1)c1ccccc1 [G, 1,1-bis(phenylsulphonyl)-2-(quinol-2-ylamino)ethene]	30%

Same assay, conditions: mice, dose 40 mg/kg animal body weight

Compound	% inhibition
NC(=O)c1cnc(NC=C(S(=O)(=O)c2ccccc2)S(=O)(=O)c2ccccc2)cn1 [I, 1-(5-carbamoylpyrazin-2-ylamino)-2,2-bis(phenylsulphonyl)ethene]	30%

Same assay, conditions: mice, dose 50 mg/kg animal body weight

Compound	% inhibition
O=S(=O)(C(=CNc1cnc2ccccc2c1)S(=O)(=O)c1ccccc1)c1ccccc1 [E, 1,1-bis(phenylsulphonyl)-2-(quinol-3-ylamino)ethene]	15%
O=S(=O)(C(=CNc1nc2ccccc2s1)S(=O)(=O)c1ccccc1)c1ccccc1 [D, 1-(benzothiazol-2-ylamino)-2,2-bis(phenylsulphonyl)ethene]	27%
O=S(=O)(C(=CNc1ccc2ccccc2n1)S(=O)(=O)c1ccccc1)c1ccccc1 [G, 1,1-bis(phenylsulphonyl)-2-(quinol-2-ylamino)ethene]	24%

The compounds below were run on mouse macrophage cells (assay: reduction by 50% of inhibition of migration of incubated mouse macrophage cells (antagonism or reduction of lymphokine levels)). Settings: po, twice: one hour before and four hours after antigen, each time at the dose shown, mice.
Format: in vivo
Description: For example, from tests in mice it was calculated that compounds of formula I, when twice administered orally, one hour before and four hours after the administration of antigen, each time at the doses shown in the following Table I, would reduce by 50% the inhibition of migration of incubated mouse macrophage cells measured in a manner similar to that described by Likhite et al, Cellular Immunology, Vol 5, 1972, page 377. This is a measure of antagonism or reduction of the levels of lymphokines and is indicative of utility in the treatment of arthritic patients.

Compound	ED50
O=S(=O)(C(=CNCc1ccccc1)S(=O)(=O)c1ccc(Cl)cc1)c1ccc(Cl)cc1 [V, 2-benzylamino-1,1-bis(4-chlorophenylsulphonyl)ethene]	< 10 mg/kg
O=S(=O)(C(=CNCc1ccccn1)S(=O)(=O)c1ccc(Cl)cc1)c1ccc(Cl)cc1 [W, 1,1-bis(4-chlorophenylsulphonyl)-2-(pyrid-2-ylmethylamino)ethene]	< 10 mg/kg
O=S(=O)(C(=CNc1nccs1)S(=O)(=O)c1ccccc1)c1ccccc1 [Compound A, 1,1-bis(phenylsulphonyl)-2-(thiazol-2-ylamino)ethene]	10 mg/kg
O=S(=O)(C(=CNc1ccccc1)S(=O)(=O)c1ccccc1)c1ccccc1 [Z, 1-phenylamino-2,2-bis(phenylsulphonyl)ethene]	2 mg/kg
Cc1cc(C)nc(NC=CC=O)c1 [AI, 1-formyl-2-(4,6-dimethylpyrid-2-ylamino)ethene]	5.2 mg/kg
Cc1cc(NC=C(S(=O)(=O)c2ccccc2)S(=O)(=O)c2ccccc2)nc(C)n1 [H, 1-(2,6-dimethylpyrimidin-4-ylamino)-2,2-bis(phenylsulphonyl)ethene]	< 10 mg/kg
Cn1cc(C(N)=O)ccc1=NC=C(S(=O)(=O)c1ccccc1)S(=O)(=O)c1ccccc1 [AP, 2-[2,2-bis(phenylsulphonyl)ethen-1-ylimino]-5-carbamoyl-1-methylpyridine]	< 10 mg/kg
O=S(=O)(C(=CNc1nccnn1)S(=O)(=O)c1ccccc1)c1ccccc1 [C, 1,1-bis(phenylsulphonyl)-2-(1,2,4-triazin-3-ylamino)ethene]	2 mg/kg
CC(=O)C(=CNc1ccc(Br)cn1)S(=O)(=O)c1ccccc1 [O, 1-acetyl-2-(5-bromopyrid-2-ylamino)-1-phenylsulphonylethene]	14 mg/kg
CS(=O)(=O)C(C#N)=CNc1ccc(Br)cn1 [N, 2-(5-bromopyrid-2-ylamino)-1-cyano-1-methylsulphonylethene]	28 mg/kg
O=[N+]([O-])c1ccc(N(C=CS(=O)(=O)c2ccccc2)c2ccc(Br)cn2)cc1 [Compound BE, 1-[N-(5-bromopyrid-2-yl)-N-(4-nitrophenyl)]amino-2-phenylsulphonylethene]	4.4 mg/kg
